Activity calls are given as the source filed them. No rule for the calls is given here.
Target: Ubiquitin-conjugating enzyme E2 N (Homo sapiens) (UniProt P61088)
Assay: NMR detection of UBE2N ligand binding – biophysical, purified protein (AID 1552)
Details: NMR binding to purified UBE2N

Sequence of Ubiquitin-conjugating enzyme E2 N (Homo sapiens) (P61088 whole entry, looked up): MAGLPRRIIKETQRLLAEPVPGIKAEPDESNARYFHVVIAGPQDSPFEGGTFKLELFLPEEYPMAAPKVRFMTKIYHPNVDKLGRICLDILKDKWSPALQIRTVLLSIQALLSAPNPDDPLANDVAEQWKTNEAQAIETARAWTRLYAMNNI

SMILES | Kd
CC(=O)c1cnc2nc(C(F)(F)F)nn2c1C | > 4 mM (inactive)
COc1ccc2c(=O)c(CC(=O)O)coc2c1 | > 4 mM (inactive)
O=C1C2C3C=CC(C3)C2C(=O)N1c1nccs1 (configuration not stated) | > 4 mM (inactive)
O=C1NC(=O)C(=Cc2ccccc2)C(=O)N1 | > 4 mM (inactive)
O=c1ccc2c([nH]1)CCCC2 | > 4 mM (inactive)
OCC1CCCN2CCCCC12 (configuration not stated) | > 4 mM (inactive)
Cn1ccnc1SCc1cc(=O)[nH]c2ccccc12 | > 4 mM (inactive)
CSc1ccccc1NC(=O)c1c(C)noc1C | > 4 mM (inactive)
COc1ccc(-c2coc3c(OC)c(OC)cc(OC)c3c2=O)cc1 | > 4 mM (inactive)
C/C=C(\C)c1nnc(NC(=O)C(C)C)s1 | > 4 mM (inactive)
CON(C)C(=O)Nc1ccc(Cl)cc1 | > 4 mM (inactive)
Cc1nc2ccccc2c(=O)n1NC(=O)Nc1ccccc1 | > 4 mM (inactive)
CC(CCC(=O)O)[C@H]1CCC2C3C[C@H](O)[C@@H]4C[C@H](O)CC[C@]4(C)C3CC[C@@]21C (some centres not stated) | > 4 mM (inactive)
NC(=O)CNC(=O)c1ccccc1 | > 4 mM (inactive)
CCOC(=O)Cc1nc2ccccc2[nH]1 | > 4 mM (inactive)
CC(=O)N1CCc2cc(NC(=O)c3ccc(C)cc3)ccc21 | > 4 mM (inactive)
O=C1CSC(=O)N1CNc1ccccc1 | > 4 mM (inactive)
NC(=O)CCn1c(=O)oc2ccccc21 | > 4 mM (inactive)
Cc1cc(N(CN2CCCC2=O)C(=O)c2ccccc2)no1 | > 4 mM (inactive)
Oc1ccc(C(=S)N2CCCCC2)cc1Cl | > 4 mM (inactive)
NC(=O)c1ccsc1NC(=O)c1ccco1 | > 4 mM (inactive)
O=C(O)c1csc2ccccc12 | > 4 mM (inactive)

SMILES | Kd
O=C1NC(=Nc2ccc(O)cc2)S/C1=C/c1ccco1 | > 4 mM (inactive)
O=C(NC1=NCCS1)c1ccc([N+](=O)[O-])cc1Cl | > 4 mM (inactive)
COc1cc2c(cc1O)[C@@H](Cc1ccc(O)cc1)[N+](C)(C)CC2 | > 4 mM (inactive)
C=C(C)C1Cc2c(ccc(C(=O)O)c2O)O1 (configuration not stated) | > 4 mM (inactive)
COc1cc(C(=S)N2CCOCC2)ccc1O | > 4 mM (inactive)
[O-][n+]1c2ccccc2[n+]([O-])c2cc(O)ccc21 | > 4 mM (inactive)
Cc1csc2nc3ccccc3c(=O)n12 | > 4 mM (inactive)
COc1ccc(-c2cc(=O)c3cc(OC)ccc3o2)cc1 | > 4 mM (inactive)
O=C(Cc1cccs1)Nc1ccccn1 | > 4 mM (inactive)
CC(=O)NC(=S)Nc1nc2ccccc2n1C(C)=O | > 4 mM (inactive)
Nc1nncn1C(=O)c1ccccc1Cl | > 4 mM (inactive)
COc1c2c(cc3cc[n+](C)cc13)OCO2 | > 4 mM (inactive)
CCCCCc1c2c(cc(O)c1C(=O)O)OC(=O)c1c(cc(OC)cc1C(=O)CCCC)O2 | > 4 mM (inactive)
Cc1ccccc1NC(=O)CC1SC(N)=NC1=O (configuration not stated) | > 4 mM (inactive)
O=C(O)c1ccc2sccc2c1 | > 4 mM (inactive)
CNS(=O)(=O)c1ccc2[nH]c(=O)[nH]c2c1 | > 4 mM (inactive)
CNC(=O)Nc1cccc(C(F)(F)F)c1 | > 4 mM (inactive)
C=C[C@@](C)(O)CCC1C(=C)C[C@H](OC(C)=O)C2C(C)(C)CCCC12C (some centres not stated) | > 4 mM (inactive)
CN1C(=O)/C(=C/c2ccccc2O)NC1=S | > 4 mM (inactive)
O=C(NCCO)NC(=S)c1ccccc1 | > 4 mM (inactive)
CS(=O)(=O)c1ccc(N)cc1 | > 4 mM (inactive)
O=C1O[C@H](C(O)CO)C(O)=C1O (some centres not stated) | > 4 mM (inactive)

SMILES | Kd
O=C1CCC(=O)N1c1cccc([N+](=O)[O-])c1 | > 4 mM (inactive)
CCCNC(=O)CSc1nnc(C)s1 | > 4 mM (inactive)
S=C(Cc1cccnc1)N1CCOCC1 | > 4 mM (inactive)
C=C1C[C@]23C[C@@]1(O)CC[C@H]2[C@@]12C=C[C@H](O)C(C)(C(=O)O1)[C@H]2[C@@H]3C(=O)O | > 4 mM (inactive)
NCc1ccc(-c2ccccn2)s1 | > 4 mM (inactive)
COC[C@]12CN(C=O)C3[C@@H]4[C@H](OC)C1[C@]3(C1CC3(O)C(OC)C(O)C4(OC(C)=O)C1C3OC(=O)c1ccccc1)[C@@H](OC)C[C@H]2O (some centres not stated) | > 4 mM (inactive)
O=c1c2ccccc2ncn1C1CCCCC1 | > 4 mM (inactive)
CCn1nccc1C(=O)Nc1ccc(Cl)cc1Cl | > 4 mM (inactive)
Nc1ccc(S(=O)(=O)N2CCCCC2)cc1 | > 4 mM (inactive)
O=C1CSC(=Nc2ccc(Cl)cc2)N1 | > 4 mM (inactive)
Cc1nn(-c2ccccc2)c(Cl)c1C(N)=O | > 4 mM (inactive)
O=C(O)C1COc2ccccc2O1 (configuration not stated) | > 4 mM (inactive)
Nc1ncnc(Nc2ccccc2C(F)(F)F)n1 | > 4 mM (inactive)
O=C(O)C1CC(=O)N(Cc2ccco2)C1 (configuration not stated) | > 4 mM (inactive)
Cc1cc2nc3c(=O)[nH]c(=O)nc-3n(CC(O)C(O)C(O)CO)c2cc1C (configuration not stated) | > 4 mM (inactive)
c1ccc(Cn2c(Nn3cnnc3)nc3ccccc32)cc1 | > 4 mM (inactive)
C#CCCCCCCCCCCCC(O)CC(O)COC(C)=O (configuration not stated) | > 4 mM (inactive)
Cc1cc(=O)oc2cc(O)c(O)cc12 | > 4 mM (inactive)
CCC(=O)Nc1cc(C(C)C)c(O)cc1C | > 4 mM (inactive)
O=C(COc1ccccc1)N1CCc2ccccc2C1 | > 4 mM (inactive)
Cc1ccc(-n2nnnc2SCC(N)=O)c(C)c1 | > 4 mM (inactive)
CC(CO)NC(=O)C1C=C2c3cccc4[nH]cc(c34)C[C@H]2N(C)C1 (some centres not stated) | > 4 mM (inactive)

SMILES | Kd
FC(F)(F)c1cc(-c2ccco2)nc(N2CCOCC2)n1 | > 4 mM (inactive)
O=c1[nH]cc(COCc2ccccc2)c(=O)[nH]1 | > 4 mM (inactive)
O=C(O)Cn1cc(C(=O)c2cccs2)c2ccccc21 | > 4 mM (inactive)
Cc1nc(-c2ccccc2)ncc1CO | > 4 mM (inactive)
NC(C(=O)O)C(O)c1ccccc1 (configuration not stated) | > 4 mM (inactive)
O=C(COc1ccccc1O)NCCO | > 4 mM (inactive)
Cn1cccc1C=C1C(=O)NC(=S)NC1=O | > 4 mM (inactive)
CC1CCC2(OC1)OC1CC3C4CCC5C[C@@H](O)CCC5(C)C4=CCC3(C)C1[C@@H]2C (some centres not stated) | > 4 mM (inactive)
O=S1(=O)C=CC(N2CCCCC2)C1 (configuration not stated) | > 4 mM (inactive)
Nc1ccccc1N1CCOCC1 | > 4 mM (inactive)
Cn1c(=O)n(CC(=O)Nc2cccnc2)c2ccccc21 | > 4 mM (inactive)
S=C(NCC1CCCO1)NC1CC1 (configuration not stated) | > 4 mM (inactive)
Oc1cc2c(cc1O)C1c3ccc(O)c(O)c3OCC1(O)C2 (configuration not stated) | > 4 mM (inactive)
Cc1cc(C(F)(F)F)n2nc(C(=O)O)c(Cl)c2n1 | > 4 mM (inactive)
O=S(=O)(Cc1ccccc1)N1CCCCCC1 | > 4 mM (inactive)
Cc1ccc(C(=O)Nn2cnnc2)s1 | > 4 mM (inactive)
Nc1ccc2c(c1)OCCO2 | > 4 mM (inactive)
O=C1c2ccccc2C(=O)c2c(O)c(O)cc(O)c21 | > 4 mM (inactive)
COc1ccccc1/C=C\C(=O)O | > 4 mM (inactive)
C[C@]12C=CC(=O)C=C1CCC1C2CC[C@]2(C)C(=O)CCC12 (some centres not stated) | > 4 mM (inactive)
NC(=O)CSCc1c(Cl)cccc1Cl | > 4 mM (inactive)

Source: PubChem BioAssay AID1552 (Sanford-Burnham Center for Chemical Genomics, 2009)
